Source: US20250090699A1, “FAP TARGETING CYCLIC PEPTIDES AND CONJUGATES THEREOF” (Novartis AG, priority 2023, published 2025)
Structures can show the parent of a compound that is named as a salt. Starred links: 1 amine or outer side, 2 acyl side, 3 side chain; linkers in the order of their positions; H or OH if unused. Non-standard residues stand in square brackets, D forms with d. Residues, ends and D or L forms follow the SMILES beside them. Groups on a side chain read outwards from the residue. *: point of attachment. F(4amPEG2NHDOTA-Ga) = gallium complex of (S)-2,2',2''-(10-(1-(4-(2-amino-2-carboxyethyl)phenyl)-3,12-dioxo-5,8-dioxa-2,11-diazatridecan-13-yl)-1,4,7,10-tetraazacyclododecane-1,4,7-triyl)triacetic acid (Phe with 4-aminomethyl-PEG2-DOTA-Ga), O=C([O-])CN1CCN(CC(=O)[O-])CCN(CC(=O)NCCOCCOCC(=O)NCc2ccc(C[C@H](N[*:1])C(=O)[*:2])cc2)CCN(CC(=O)[O-])CC1.[Ga+3]; K(COpipzaa) = N6-(4-(carboxymethyl)piperazine-1-carbonyl)-L-lysine, O=C(NCCCC[C@H](N[*:1])C(=O)[*:2])N1CCN(CC(=O)[*:3])CC1; COpipzaa = 4-(carboxymethyl)piperazine-1-carbonyl, O=C(O)CN1CCN(C(=O)*)CC1; F(4amPEG2NHRDOTAGA-Ga) = Phe with 4-aminomethyl-PEG2-NH-DOTAGA, Ga complex; hS(Pr) = O-propyl-L-homoserine, CCCOCC[C@H](N[*:1])C(=O)[*:2]; Trp(7-aza) = N[C@@H](Cc1c[nH]c2ncccc12)C(=O)O; Piperazinyl(4-CH2COOH) = O=C(O)CN1CCN(*)CC1; NMeF = CN[C@@H](Cc1ccccc1)C(=O)O; Ahp(2) = CCCCC[C@H](N)C(=O)O; Nphe = O=C(O)CNCc1ccccc1; dNMeA = CN[C@H](C)C(=O)O; Dab = NCC[C@H](N)C(=O)O; CO = O=C([*:1])[*:2]

Tests used:
mouse FAP [1] = target: T1, mouse FAP (Mus musculus, UniProt P97321); test: Enzymatic FAP competition assay (Z-Gly-Pro-AMC fluorescence), mouse FAP; format: biochemical; settings: read-out: m. FAP, Enz., IC50
T1 construct: biotinylated His, Avi tag, mouse FAP (26-761, FAP-M82Q5); His; Avi tag (biotinylated); purchased AcroBiosystems FAP-M82Q5
T1 sequence (P97321 26-761): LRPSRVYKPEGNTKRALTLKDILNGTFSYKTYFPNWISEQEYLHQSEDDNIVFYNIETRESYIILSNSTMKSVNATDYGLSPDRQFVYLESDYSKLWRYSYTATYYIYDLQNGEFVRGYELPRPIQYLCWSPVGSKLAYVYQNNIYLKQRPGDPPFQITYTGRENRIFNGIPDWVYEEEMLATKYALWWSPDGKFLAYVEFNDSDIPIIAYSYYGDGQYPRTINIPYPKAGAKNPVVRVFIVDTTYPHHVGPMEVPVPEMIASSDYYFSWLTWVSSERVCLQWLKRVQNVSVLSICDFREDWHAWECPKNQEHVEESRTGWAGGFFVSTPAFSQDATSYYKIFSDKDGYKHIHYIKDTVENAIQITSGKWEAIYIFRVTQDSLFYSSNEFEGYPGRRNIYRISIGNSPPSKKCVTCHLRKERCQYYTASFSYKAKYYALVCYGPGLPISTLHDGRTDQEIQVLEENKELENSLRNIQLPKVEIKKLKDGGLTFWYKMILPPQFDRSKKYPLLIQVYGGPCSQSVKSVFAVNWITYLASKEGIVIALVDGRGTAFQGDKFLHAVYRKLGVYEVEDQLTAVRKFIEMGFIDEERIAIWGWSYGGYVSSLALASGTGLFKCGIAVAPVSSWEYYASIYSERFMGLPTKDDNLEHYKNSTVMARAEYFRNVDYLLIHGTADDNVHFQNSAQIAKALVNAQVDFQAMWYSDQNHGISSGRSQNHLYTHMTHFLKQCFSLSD
Protocol: (§1) Peptide potencies (IC50) to inhibit the FAP enzymatic activity were determined using a fluorescence-based assay towards the biotinylated His, Avi tag, human FAP (26-760, FAP-H82Q6) and the biotinylated His, Avi tag, mouse FAP (26-761, FAP-M82Q5). Standard assay conditions consisted of 20 μL total volume in white 384-well plates (Greiner, Ref. 784075), in 50 mM phosphate buffer pH 7.5 containing 150 mM NaCl, 0.05% Tween20 and 1% final DMSO. Tested peptides at 14 different concentrations up to 1 μM were added to 0.01 nM human or mouse FAP. The peptides were incubated for 24 hours together with the protein before adding the substrate 50 μM Z-Gly-Pro-AMC (I-1145 from Bachem). Samples were then incubated at 22-24° C. for 4 h before reading the fluorescence at excitation wavelength of 380 nm and emission wavelength of 460 nm using the Tecan Infinite® M1000 PRO. The high control (100% activity) was not containing any peptide, and an internal potent peptide was added at 10 μM concentration for the low control (100% inhibition). IC50 values were calculated by curve fitting using an in-house developed software (Novartis Helios software application) using the method described by Fomenko et al., 2006 (regression algorithms for nonlinear dose-response curve fitting). Following normalization of activity values for the wells to % inhibition (% inhibition=[(high control-sample)/(high control-low control)]x 100). IC50 fitting was carried out from the duplicated points.

human FAP = target: T2, human FAP (Homo sapiens, UniProt Q12884); test: Enzymatic FAP competition assay (Z-Gly-Pro-AMC fluorescence), human FAP; format: biochemical; settings: read-out: h. FAP, Enz., IC50
T2 construct: the biotinylated His, Avi tag, human FAP (26-760, FAP-H82Q6); His; Avi tag (biotinylated); purchased AcroBiosystems FAP-H82Q6
T2 sequence (Q12884 26-760): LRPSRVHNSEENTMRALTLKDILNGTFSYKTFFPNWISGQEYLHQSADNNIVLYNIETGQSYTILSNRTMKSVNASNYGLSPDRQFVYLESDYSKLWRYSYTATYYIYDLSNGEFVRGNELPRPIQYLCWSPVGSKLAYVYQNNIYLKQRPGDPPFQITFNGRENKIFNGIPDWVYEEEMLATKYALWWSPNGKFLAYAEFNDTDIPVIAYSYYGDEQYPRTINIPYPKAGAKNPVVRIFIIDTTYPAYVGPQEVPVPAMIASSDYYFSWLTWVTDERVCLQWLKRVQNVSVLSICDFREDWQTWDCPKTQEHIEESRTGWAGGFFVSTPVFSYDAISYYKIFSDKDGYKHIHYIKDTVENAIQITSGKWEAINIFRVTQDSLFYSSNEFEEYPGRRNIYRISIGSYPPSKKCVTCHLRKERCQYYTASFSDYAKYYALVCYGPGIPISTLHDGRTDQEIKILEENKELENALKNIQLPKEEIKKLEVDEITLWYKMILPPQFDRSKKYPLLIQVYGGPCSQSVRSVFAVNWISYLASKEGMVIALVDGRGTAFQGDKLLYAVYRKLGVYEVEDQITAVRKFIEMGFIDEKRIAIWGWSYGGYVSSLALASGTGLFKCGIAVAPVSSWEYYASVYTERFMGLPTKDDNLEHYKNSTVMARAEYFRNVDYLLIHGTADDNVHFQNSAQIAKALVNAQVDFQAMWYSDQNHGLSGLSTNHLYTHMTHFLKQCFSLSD
Protocol: as §1

mouse FAP [2] = target: T1, mouse FAP; test: Surface plasmon resonance (SPR) for peptide affinity, mouse FAP; format: binding
Protocol: Peptide affinities (KD) were determined by SPR using a Biacore™ 8K device (Cytiva) towards the following proteins: biotinylated His, Avi tag, human FAP (26-760, FAP-H82Q6), biotinylated His, Avi tag, mouse FAP (26-761, FAP-M82Q5), His tag, human DPP4 (34-766, DP4-H82E3), all purchased from AcroBiosystems and His tag, mouse DPP4 (29-760, 954-SE) from R&D Systems. The FAP proteins and their homologous were diluted to a concentration of 2 μg/mL into acetate buffer pH 5.5, then immobilized onto a CM5 sensorchip (Cytiva, BR-1005-30) to reach a response around 2000 R U. The running buffer HBS-EP+pH 7.6 (20× from Teknova CAT. No: H8022) contained 10 mM HEPES pH 7.6, 150 mM NaCl, 3 mM EDTA, 0.05% Tween20 and 2% DMSO. Experiments were carried out at 25° C. using a flow rate of 30 μL/min. Compounds were tested in single cycle kinetic mode at 8 different concentrations. Curve fitting was performed using the Biacore™ 8K evaluation software. The sensorgrams were fitted by applying a 1:1 binding model to calculate kinetic rate constants and equilibrium dissociation constants (KD).
For this assay, the setup had the same conditions (flow rate, running buffer, peptide dilution) as described above for the CM5 method. The oligo CAP reagent obtained in the CAPture Kit (Ref. 28920234) was 1/5 diluted into running buffer and used with a contact time of 300 s at a flow rate of 2 μL/min. The human and mouse FAP constructs described above were used (from AcroBiosystems or produced in house). The FAP proteins were diluted to a concentration of 2 μg/mL into acetate pH 5.5, 0.05% Tween20 and used with a contact time of 600 s at a flow rate of 10 μL/min. The peptides were tested with an association time of 280 s followed by a dissociation time of 3000 s at a flow rate of 30 μL/min. The regeneration was done using the regeneration solution (8 M guanidine-HCl, 1 M NaOH) as obtained with a contact time of 270 s at a flow rate of 10 μL/min. […] The compounds marked with an asterisk were tested against human and mouse DDP4.

Row | IC50 (mouse FAP [1]) [pM] | IC50 (human FAP) [pM] | Kd (mouse FAP [2]) [pM] | Molecule
1 | 2800 | 340 | 1800 | CCCCC[C@@H]1NC(=O)[C@H](Cc2ccc(O)cc2)NC(=O)[C@H](Cc2ccccc2)N(C)C(=O)CNC(=O)CNC(=O)[C@@H](C)N(C)C(=O)[C@H](CC(=O)O)NC(=O)[C@H](Cc2ccc(O)cc2)NC(=O)CNC(=O)[C@H](Cc2c[nH]c3ccccc23)NC1=O [Example A65, Gly-Gly-NMePhe-Tyr-Ahp-Trp-Gly-Tyr-Asp-D-NMeA] (cyclo([Ahp(2)]WGYD[dNMeA]GG[NMeF]Y))
2 | 500 | 70 | 620 | CCCCC[C@@H]1NC(=O)[C@H](Cc2ccc(O)cc2)NC(=O)[C@H](Cc2ccccc2)N(C)C(=O)CNC(=O)CNC(=O)[C@H]2CCCN2C(=O)[C@H](CC(=O)O)NC(=O)[C@H](CCNC(=O)N2CCN(CC(=O)O)CC2)NC(=O)CNC(=O)[C@H](Cc2c[nH]c3ccccc23)NC1=O [Example A5, Gly-Gly-NMePhe-Tyr-Ahp-Trp-Gly-Dab(COPipzaa)-Asp-D-Pro] (cyclo([Ahp(2)]WG[Dab]([CO-Piperazinyl(4-CH2COOH)])D[dP]GG[NMeF]Y))
3 | 3300 | 1400 | 4600 | CCCCC[C@@H]1NC(=O)[C@H](Cc2ccc(O)cc2)NC(=O)[C@H](Cc2ccccc2)N(C)C(=O)CNC(=O)CNC(=O)[C@H]2CCCN2C(=O)[C@H](CC(=O)O)NC(=O)CN(Cc2ccccc2)C(=O)CNC(=O)[C@H](Cc2c[nH]c3ccccc23)NC1=O [Example A74, Gly-Gly-NMePhe-Tyr-Ahp-Trp-Gly-NBnG-Asp-D-Pro] (cyclo(GG[NMeF]Y[Ahp(2)]WG[Nphe]D[dP]))
4 | 51 | 15 | < 24 | Gly-Gly-NMePhe-F(4amPEG2NHRDOTAGA-Ga)-hS(Pr)-Trp-Gly-K(COpipzaa)-AsI-D-Pro (cyclo(GG[NMeF][F(4amPEG2NHRDOTAGA-Ga)][hS(Pr)]WGK(COpipzaa)D[dP]); also: Ga complex) [Example C39]
5 | 60 | 19 | < 23 | Glu-Gly-NMePhe-F(4amPEG2NHDOTA-Ga)-hS(Pr)-Trp-Gly-K(COpipzaa)-Asp-D-Pro (cyclo(EG[NMeF][F(4amPEG2NHDOTA-Ga)][hS(Pr)]WG[K(COpipzaa)]D[dP]); also: Ga complex of DOTA) [Example C45]

Row | Molecule | IC50 (mouse FAP [1]) [pM] | IC50 (human FAP) [pM] | Kd (mouse FAP [2]) [pM]
6 | CCCCC[C@@H]1NC(=O)[C@H](Cc2ccc(O)cc2)NC(=O)[C@H](Cc2ccccc2)N(C)C(=O)CNC(=O)[C@H](CCCCN)NC(=O)[C@H]2CCCN2C(=O)[C@H](CC(=O)O)NC(=O)[C@H](Cc2ccc(O)cc2)NC(=O)CNC(=O)[C@H](Cc2c[nH]c3ncccc23)NC1=O [Example A26, 2-((3S,9S,12S,15S,18S,24S,27S,32aR)-18-((1H-pyrrolo[2,3-b]pyridin-3-yl)methyl)-3-(4-aminobutyl)-9-benzyl-12,24-bis(4-hydroxybenzyl)-8-methyl-1,4,7,10,13,16,19,22,25,28-decaoxo-15-pentyldotriacontahydropyrrolo[1,2-a][1,4,7,10,13,16,19,22,25,28]decaazacyclotriacontin-27-yl)acetic acid TFA salt] (cyclo([Ahp(2)][Trp(7-aza)]GYD[dP]KG[NMeF]Y)) | 1600 | 470 | 2700
